Like-named read-outs stand apart in the source and are kept apart here. Numbered stars: 1 amine (or outer) side, 2 acyl side, 3 side chain; on linkers, the order of the positions; unused ones are H or OH. Bridge positions count the residues as written; N and C are the ends. Square brackets hold non-standard residues; d marks the D form. Ends that are not written are not given here. Peptide text beside a SMILES is read from it. I, II: the chains in the order shown. Actinocin(9to1) = Cc1c2oc3c(C)ccc(C(=O)[*:1])c3nc-2c(C(=O)[*:2])c(N)c1=O; NMeV = CN[C@H](C(=O)O)C(C)C; Sar = CNCC(=O)O
What was measured:
[1] = system: small ducts from rat pancreas; conditions: cited from earlier work
Fetal rat islets = experiment: Insulin content of cultured fetal rat islets; type: cell-based; conditions: 200μ/ml PYY for 5 days, actinomycin D at 0.1, 0.2, 0.5 and 1.0 μg/ml for the last 16 hours
Description: (§1) Fetal rat islets were obtained as follows. […] Fetuses were removed from the uterus.

e21 islets = experiment: IBMX stimulated calcium influx in e21 islets; type: cell-based, rat; conditions: 1 μM IBMX in 3 mM (low) glucose; non-glucose responsive e21 islets
Protocol: as §1
E21 islet were isolated and cultured according to Example 1. Islets were then treated with 17 mM glucose or 1 μM IBMX in 3 mM (low) glucose (FIG. 2).

E21 fetal islets = experiment: Glucose-stimulated insulin release (static insulin release, RIA) in cultured e21 fetal rat islets; conditions: e21 fetal islets cultured for 5 days with 200 ng/ml peptide
[2] = confluent duct monolayer, single treatment preferentially 48 hr

## CCCC(=O)Nc1ncnc2c1ncn2[C@@H]1O[C@@H]2COP(=O)(O)O[C@H]2[C@H]1OC(=O)CCC [dibutyrl cAMP]
[1]; [2]
  induction of differentiation: found to induce differentiation

## Cc1c2oc3c(C)ccc(C(=O)N[C@@H]4C(=O)N[C@H](C(C)C)C(=O)N5CCC[C@H]5C(=O)N(C)CC(=O)N(C)[C@@H](C(C)C)C(=O)O[C@@H]4C)c3nc-2c(C(=O)N[C@@H]2C(=O)N[C@H](C(C)C)C(=O)N3CCC[C@H]3C(=O)N(C)CC(=O)N(C)[C@@H](C(C)C)C(=O)O[C@@H]2C)c(N)c1=O [Actinomycin D, actinomycin D] (I: T[dV]P[Sar][NMeV] / II: T[dV]P[Sar][NMeV]; ester I:1-I:C, II:1-II:C; linker I:N-II:N via Actinocin(9to1))
Fetal rat islets
  overall islet insulin content: did not significantly decrease overall islet insulin content

## CC(C)Cn1c(=O)n(C)c(=O)c2[nH]cnc21 [IBMX]
e21 islets
  intracellular calcium influx: induced a calcium influx

## neuropeptide Y [NPY]
E21 fetal islets
  gain of glucose responsivity (glucose-stimulated insulin release): did not stimulate gain of glucose responsivity

## PPP: related peptide sharing approximately 70% amino acid homology with PYY; probably pancreatic polypeptide (PP) (APLEPVYPGDNATPEQMAQYAADLRRYINMLTRPRY; ends and bridges not checked; UniProt P01298 30-65, looked up)
E21 fetal islets
  gain of glucose responsivity (glucose-stimulated insulin release): did not stimulate gain of glucose responsivity

## cholera toxin
[1]
  induction of differentiation: found to induce differentiation

## CCCC(=O)[O-].[Na+] [Na-Butyrate]
[1]; [2]
  induction of differentiation: found to induce differentiation
